The record followed here is ChEMBL document CHEMBL1150435, “Inhibition of antennal esterases of the egyptian armyworm Spodoptera littoralis by trifluoromethyl ketones” (Bioorg Med Chem Lett, 1993).

Each structure is given as a SMILES string.

For experiment [1], the system named is Spodoptera littoralis. Kind of experiment: Tested for its ability to inhibit antennal esterases of Spodoptera littoralis without pre-incubation at 63 uM concentration.
Experiment [2] in a line: Tested for its ability to inhibit antennal esterases of Spodoptera littoralis without pre-incubation.
Experiment [3] is described as follows: Compound was tested for competitive inhibition of antennal esterases of Spodoptera littoralis.
Experiment [4] in a line: Tested for the ability to inhibit antennal esterases of Spodoptera littoralis with pre-incubation.

As a reminder, the inhibition is the relative decrease from the control value, in per cent. Low readings indicate a weak effect, high ones a strong effect. The term IC50 denotes the midpoint of a concentration-inhibition curve. Low readings indicate inhibition by little substance, high ones a need for much substance. Usually Ki stands for a dissociation constant, usually derived from enzyme kinetics or from competition with a known ligand.

`O=C(c1cccc2ccccc12)C(F)(F)F` displayed an inhibition in experiment [1] of 38%.
Turning to `CCCCCCCCCCCCC(=O)C(F)(F)F`, the IC50 in experiment [2] turned out to be 10.6 µM; in experiment [4], 1.16 µM. Also, in experiment [3], the Ki came to 29.8 µM.
Taken in the same sequence, the figures for `O=C(c1ccc2ccccc2c1)C(F)(F)F` were 7.9 µM, 11.4 µM and 249 µM.
In the case of `O=C(c1ccccc1)C(F)(F)F`, the inhibition in experiment [1] turned out to be 31%. In experiment [4], this compound came in with an IC50 of 40.7 µM.
`CCCCCCCCCCCCCCCCCC(=O)C(F)(F)F` registered an inhibition in experiment [1] of 44%.
In experiment [1], `O=C(Cc1ccccc1)C(F)(F)F` registered an inhibition of 36%.
Turning to `CCCCCCCCCCCCCC(=O)C(F)(F)F`, the half-inhibitory concentration (IC50) was found to be 11 µM in experiment [2] and 4.4 µM in experiment [4].
`CCCCCCCCCCCCCCC(=O)C(F)(F)F` registered an IC50 in experiment [4] of 18.4 µM.
For `CCCCCCCCSCC(=O)C(F)(F)F`, the IC50 in experiment [2] came out at 3.7 µM; in experiment [4] it was 0.55 µM. The compound also had an inhibition constant (Ki) in experiment [3] of 25.1 µM.
Regarding `O=C(CCc1ccccc1)C(F)(F)F`, the inhibition in experiment [1] was determined as 43%.
`CCCCCCCCCCC(=O)C(F)(F)F` came in with an IC50 in experiment [4] of 19.3 µM.
In experiment [1], `CCCCCCCCCCCCCCCCC(=O)C(F)(F)F` yielded an inhibition of 50%.
